In patent publication US8956445B2, “High stability diionic liquid salts” (Sigma-Aldrich Co., priority 2004, dated 2015):
Read-outs that look alike come from different tables or passages of the source.

Experiments:
[1] = Surface tension (DuNuoy Tensiometer); format: physicochemical; settings: room temperature (23° C.)
[2] = Density (2.0 mL volumetric tube, weighing by difference); format: physicochemical; settings: 23° C.
Protocol: (§1) The densities of the ionic liquids or, more correctly, […] (used synonymously except as indicated otherwise explicitly or by context) was determined at 23° C. by placing 2.0 mL of the ionic liquid in a 2.0 mL volumetric tube and weighing by difference. The melting points of the ionic liquids were determined using a Perkin Elmer Pyris 1 Differential Scanning calorimeter (Boston, Mass.). Typical methods involved using a 10° C./min temperature ramp to determine and identify the first and second order thermal transitions. […] For solid compounds, the melting points were verified using a capillary melting point apparatus. Refractive index measurements were conducted at 23° C. using a Bausch & Lomb Abbe-3L refractometer.

[3] = Refractive index (Abbe-3L refractometer); format: physicochemical; settings: 23° C.
Protocol: as §1

Cn1cc[n+](CCC[n+]2ccn(C)c2)c1.O=S(=O)([N-]S(=O)(=O)C(F)(F)F)C(F)(F)F.O=S(=O)([N-]S(=O)(=O)C(F)(F)F)C(F)(F)F [C3(mim)2-NTf2, 1,3-di(3-methylimidazolium)propane di-bis[(trifluoromethyl)sulfonyl]imidate]
Surface Tension [1]: 44.7 dynes/cm | Density [2]: 1.61 g/mL | Refractive Index [3]: 1.440 | Miscibility with Heptane: Immiscible | Miscibility with Water: Immiscible

Cn1cc[n+](CCCCCC[n+]2ccn(C)c2)c1.O=S(=O)([N-]S(=O)(=O)C(F)(F)F)C(F)(F)F.O=S(=O)([N-]S(=O)(=O)C(F)(F)F)C(F)(F)F [C6(mim)2-NTf2, 1,6-di(3-methylimidazolium)hexane di-bis[(trifluoromethyl)sulfonyl]imida]
Surface Tension [1]: 44.2 dynes/cm | Density [2]: 1.52 g/mL | Refractive Index [3]: 1.441 | Miscibility with Heptane: Immiscible | Miscibility with Water: Immiscible

CCCCn1cc[n+](CCCCCCCCC[n+]2ccn(CCCC)c2)c1.F[B-](F)(F)F.F[B-](F)(F)F [C9(bim)2-BF4, 1,9-di(3-butylimidazolium)nonane di-tetrafluoroborate]
Surface Tension [1]: 50.4 dynes/cm | Density [2]: 1.20 g/mL | Refractive Index [3]: 1.503 | Miscibility with Heptane: Immiscible | Miscibility with Water: Partially | Miscibility with Water (listed as 19): solubility of the salt in water decreases

CCCCn1cc[n+](CCCCCCCCC[n+]2ccn(CCCC)c2)c1.O=S(=O)([N-]S(=O)(=O)C(F)(F)F)C(F)(F)F.O=S(=O)([N-]S(=O)(=O)C(F)(F)F)C(F)(F)F [C9(bim)2-NTf2, 1,9-di(3-butylimidazolium)nonane di-bis[(trifluoromethyl)sulfonyl]imidate]
Surface Tension [1]: 38.0 dynes/cm | Density [2]: 1.35 g/mL | Refractive Index [3]: 1.446 | Miscibility with Heptane: Immiscible | Miscibility with Water: Immiscible

CCCCn1cc[n+](CCCCCCCCC[n+]2ccn(CCCC)c2)c1.F[P-](F)(F)(F)(F)F.F[P-](F)(F)(F)(F)F [C9(bim)2-PF6, 1,9-di(3-butylimidazolium)nonane di-hexafluorophosphate]
Surface Tension [1]: 48.0 dynes/cm | Density [2]: 1.30 g/mL | Refractive Index [3]: 1.439 | Miscibility with Heptane: Immiscible | Miscibility with Water: Immiscible

Cc1n(C)cc[n+]1CCCCCCCCC[n+]1ccn(C)c1C.F[B-](F)(F)F.F[B-](F)(F)F [C9(m2im)2-BF4, 1,9-di(2,3-dimethylimidazolium)nonane di-tetrafluoroborate]
Surface Tension [1]: 58.1 dynes/cm | Density [2]: 1.31 g/mL | Refractive Index [3]: 1.456 | Miscibility with Heptane: Immiscible | Miscibility with Water: Miscible
